Data as given in patent US11873295B2, “Allosteric chromenone inhibitors of phosphoinositide 3-kinase (PI3K) for the treatment of disease” (Petra Pharma Corporation, priority 2021, dated 2024).

Key:
[1] = target: T1, human full length PIK3KA Wild-type (p110α/p85α complex) (Homo sapiens, UniProt P42336); assay: PI3K-alpha kinase (PIK3CA) biochemical activity, wild-type, ADP-Glo; details: PI3K-α (PIK3CA) biochemical, Soy PI lipid substrate
T1 construct: Recombinant, catalytically active human full length PIK3KA Wild-type and H1047R mutant were purchased as 1:1 complex; 6xHis (N); purchased EMD Millipore Sigma 14-602M
Description: (§1) PI3K-Alpha Kinase (PIK3CA) Activity, Wild-Type and H1047R Mutant and Determining IC50 Values for Inhibitors
(§2) Recombinant, catalytically active human full length PIK3KA Wild-type and H1047R mutant were purchased as 1:1 complex of N-terminal 6× his tagged p110α (catalytic) and untagged p85α (regulatory subunit) from EMD Millipore Sigma (cat. no. 14-602M and 14-792M, respectively). PIP2diC8 (Avanti Polar Lipids Inc., cat. no. 850185) or Soy PI (Avanti Polar Lipids Inc., cat. No. 840044P) was used as lipid substrate. PIP2diC8 or PI lyophilized powder was dissolved in milliQ water to a concentration of 1 mM just before use. 10 mM stock compounds in DMSO were serially diluted 1:3 to generate a 10-point curve and plated using an acoustic liquid handler system (Echo 550 series instrument, Labcyte). A 10× intermediate compound plate (200 uM starting compound concentration and 10% DMSO) was prepared before starting the reaction. A typical reaction mixture (50 uL) comprised 40 mM HEPES buffer, pH 7.4, 25 mM MgCl2, 0.01% v/v triton-X-100, 1% v/v DMSO, 20 mM NaCl, 1-5 nM WT or H1047R PI3K protein, 20 uM ATP, and 50 uM PIP2diC8 or Soy PI. 1% DMSO buffer alone without test compound was employed as MAX control (full activity in the absence of any inhibitor), and no enzyme control was used to determine the level of background Adenosine 5′-diphosphate (ADP) (MIN control). First, Wild-type (WT) and H1047R mutant protein in kinase buffer with all components except ATP were incubated with or without compound at 27° C. for 1 h. After the pre-incubation, the reaction was initiated by the addition of 20 uL of 50 uM ATP (20 uM final concentration). The reaction was allowed to proceed until about 10% conversion of ATP (2 uM ADP) at 27° C. After that time, 5 uL of reaction was mixed with 5 uL of ADP-Kinase Glo Reagent (ADP-Glo Kinase assay kit, Promega cat. no. V9102) supplemented with MgCl2 10 mM to stop the reaction and deplete the remaining ATP for 40 min at room temperature. Then, 10 uL of Kinase Detection Reagent (ADP-Glo Kinase assay kit, Promega cat. no. V9102) was added to simultaneously convert ADP to ATP and allow the newly synthesized ATP to be measured using a luciferase/luciferin reaction. After 30 min at room temperature the light generated was measured using a luminometer (EnVision plate reader, Perkin Elmer). Process data through Genedata-Screener tool. Relative IC50 values are determined using luminescence units by calculating percent inhibition with respect to on-plate “MIN” and “MAX” controls. Data was analyzed using a 4-parameter nonlinear logistic equation (four-parameter logistic concentration-response curve): Y=bot+[(top−bot)/1+(x/IC50)slope] where Y=% inhibition, X=concentration yielding y % inhibition, Bottom=minimum value of y attained by curve, Top=maximum value of y attained by curve and Slope=steepness of curve at IC50. % Inh=[(median Max−x/median Max−median Min)]·100 IC50: concentration of compound that reduces a given response (ligand binding, enzyme response) by 50%. IC50 relative: concentration giving half the compound's maximum response.
(§3) For IC50 values shown in Table A, “A” means IC50<0.5 μM; “B” means IC50 ranging between 0.5 μM and 1.0 μM; “C” means IC50 ranging between 1 μM and 5 μM; “D” means IC50 ranging between 5 μM and 10 μM; “E” means IC50>10 μM.

[2] = target: T2, human full length PIK3KA H1047R mutant (p110α/p85α complex) (Homo sapiens, UniProt P42336, H1047R); assay: PI3K-alpha kinase (PIK3CA) biochemical activity, H1047R mutant, ADP-Glo; details: PI3K-α (PIK3CA) biochemical, H1047R mutant, Soy PI lipid substrate
T2 construct: Recombinant, catalytically active human full length PIK3KA Wild-type and H1047R mutant were purchased as 1:1 complex; 6xHis (N); purchased EMD Millipore Sigma 14-792M
Description: as §1, §2, §3

[3] = test system: PI3K-α (PIK3CA) in MDA-MB-453 cells; assay: PI3K-alpha kinase (PIK3CA) activity in vitro cell based assay, MDA-MB-453 cells, AlphaLisa SureFire; details: Homo sapiens, MDA-MB-453, 3 h, 0% FBS, 3 hours treatment, relative IC50
Protocol: PI3K-Alpha Kinase (PIK3CA) Activity In Vitro Cell Based Assay and Determining IC50 Values for Inhibitors
The MDA-MB-453 (ATCC-HTB-131) cell line was obtained from the American Type Culture Collection (Manassas, VA). Cells were maintained in Dulbecco's Modified Eagle Media (DMEM, Gibco 11965-092) supplemented with 10% Fetal Bovine Serum, heat inactivated (FBS HI, Gibco 10082-147), 1× non-essential amino acids (NEAA, Gibco 11140-050), and 1 mM sodium pyruvate (Gibco 11360-070). Cultures were maintained in a humidified incubator at 37° C. under 5% CO2/95% air.
For compound testing in 0% FBS, MDA-MB-453 cells were seeded at a density of 1.5×10^4 cells per well in white 384-well plates in 20 μl of Minimum Essential Media (MEM) assay media with 1×NEAA, 1 mM sodium pyruvate, and 1 μg/mL human insulin (Sigma I9278). Compounds dissolved in 10 mM stock solutions in DMSO were serially diluted 1:3 in DMSO to generate a 10-point dilution series and plated using an acoustic liquid handler system (Echo 550 Series Liquid Handler, Labcyte). A 5× intermediate compound dilution plate in MEM with 1×NEAA and 1 mM sodium pyruvate (150 μM starting compound concentration in 1.5% DMSO) was then prepared. Five μl of the intermediate serially diluted compounds were added to the cell plate to final concentrations ranging from […] in 0.3% DMSO. 0.3% DMSO alone was used to establish the maximum (MAX) signal and GDC-0032 at a final concentration of 1 μM was used as a reference compound for the minimum (MIN) signal. After 3 hours treatment, the medium was removed, and the cells lysed in 10 μL of 1× SureFire Lysis buffer with shaking for 10 minutes at room temperature. The Acceptor Mix (Reaction Buffer 1+Reaction Buffer 2+Activation Buffer+SureFire Ultra Acceptor Beads) was prepared by diluting Activation buffer 25-fold in combined Reaction Buffer 1 and Reaction Buffer 2. The Acceptor beads were diluted 50-fold in the combined Reaction Buffers. Five μL of Acceptor Mix was added to each well, the plate was sealed and covered with foil and incubated for 1 hour at room temperature. The Donor Mix (dilution buffer+SureFire Ultra Donor Beads) was prepared by diluting Donor Beads 50-fold in dilution buffer. Five μL of the Donor Mix was added to each well and the plate sealed and covered with foil and incubated for 1 hour at room temperature in the dark. The plates were read on a Neo2 plate reader instrument from Biotek using standard AlphaLisa settings. Compounds were tested in duplicate and the average % inhibition at each compound concentration was used to generate a single dose response curve. The data were processed using the Genedata-Screener tool. Relative IC50 values were determined using luminescence units by calculating percent inhibition with respect to the in-plate “MIN” (GDC-0032 reference control) and “MAX” (DMSO) controls. The data was analyzed using a 4-parameter nonlinear logistic equation (four-parameter logistic concentration-response curve): Y=bottom+[(top−bottom)/1+(X/IC50)slope] where Y=% inhibition, X=concentration of inhibitor, bottom=minimum value of y attained by curve-fit, top=maximum value of y attained by curve-fit and slope=steepness of curve at the IC50. % Inhibition=[(signal at X−median Min)/(median Max−median Min)]×100 IC50: concentration of compound that reduces a given response (ligand binding, enzyme response) by 50%. Relative IC50: concentration giving half the compound's maximum response.
For IC50 values shown in Table B, “A” means IC50<50 nM; “B” means IC50 ranging between 50 nM and 100 nM; “C” means IC50 ranging between 100 nM and 500 nM; “D” means IC50>500 nM.

T2 sequence (P42336 whole entry H1047R): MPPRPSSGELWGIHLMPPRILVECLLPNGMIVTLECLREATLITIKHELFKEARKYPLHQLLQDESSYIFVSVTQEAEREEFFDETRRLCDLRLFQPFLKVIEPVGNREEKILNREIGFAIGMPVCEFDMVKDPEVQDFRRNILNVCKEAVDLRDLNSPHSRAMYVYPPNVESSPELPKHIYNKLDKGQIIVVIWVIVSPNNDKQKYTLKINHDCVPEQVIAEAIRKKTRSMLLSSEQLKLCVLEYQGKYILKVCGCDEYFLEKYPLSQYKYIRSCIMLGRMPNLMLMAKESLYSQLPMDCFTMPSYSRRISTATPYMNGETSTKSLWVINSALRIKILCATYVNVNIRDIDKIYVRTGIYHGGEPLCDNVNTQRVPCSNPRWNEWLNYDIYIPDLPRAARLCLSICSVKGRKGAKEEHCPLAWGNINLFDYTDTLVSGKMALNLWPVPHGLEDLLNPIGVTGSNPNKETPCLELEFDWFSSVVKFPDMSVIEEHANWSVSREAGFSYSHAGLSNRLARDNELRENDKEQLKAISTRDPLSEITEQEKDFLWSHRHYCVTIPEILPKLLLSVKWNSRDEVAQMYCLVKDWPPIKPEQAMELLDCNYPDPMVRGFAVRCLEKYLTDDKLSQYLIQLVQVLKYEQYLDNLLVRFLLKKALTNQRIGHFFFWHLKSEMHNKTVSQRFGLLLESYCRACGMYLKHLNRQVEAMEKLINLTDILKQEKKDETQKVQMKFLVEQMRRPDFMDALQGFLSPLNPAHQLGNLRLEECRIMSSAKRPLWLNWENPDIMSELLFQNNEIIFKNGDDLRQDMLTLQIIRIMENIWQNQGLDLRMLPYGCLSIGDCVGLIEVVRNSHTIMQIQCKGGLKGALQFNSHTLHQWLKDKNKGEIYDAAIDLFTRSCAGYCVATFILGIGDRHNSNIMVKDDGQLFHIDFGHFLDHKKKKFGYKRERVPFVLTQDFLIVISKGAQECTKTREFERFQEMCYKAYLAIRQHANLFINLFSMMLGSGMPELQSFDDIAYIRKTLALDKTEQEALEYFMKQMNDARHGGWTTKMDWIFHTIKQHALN
T2 sequence (P27986 whole entry partner): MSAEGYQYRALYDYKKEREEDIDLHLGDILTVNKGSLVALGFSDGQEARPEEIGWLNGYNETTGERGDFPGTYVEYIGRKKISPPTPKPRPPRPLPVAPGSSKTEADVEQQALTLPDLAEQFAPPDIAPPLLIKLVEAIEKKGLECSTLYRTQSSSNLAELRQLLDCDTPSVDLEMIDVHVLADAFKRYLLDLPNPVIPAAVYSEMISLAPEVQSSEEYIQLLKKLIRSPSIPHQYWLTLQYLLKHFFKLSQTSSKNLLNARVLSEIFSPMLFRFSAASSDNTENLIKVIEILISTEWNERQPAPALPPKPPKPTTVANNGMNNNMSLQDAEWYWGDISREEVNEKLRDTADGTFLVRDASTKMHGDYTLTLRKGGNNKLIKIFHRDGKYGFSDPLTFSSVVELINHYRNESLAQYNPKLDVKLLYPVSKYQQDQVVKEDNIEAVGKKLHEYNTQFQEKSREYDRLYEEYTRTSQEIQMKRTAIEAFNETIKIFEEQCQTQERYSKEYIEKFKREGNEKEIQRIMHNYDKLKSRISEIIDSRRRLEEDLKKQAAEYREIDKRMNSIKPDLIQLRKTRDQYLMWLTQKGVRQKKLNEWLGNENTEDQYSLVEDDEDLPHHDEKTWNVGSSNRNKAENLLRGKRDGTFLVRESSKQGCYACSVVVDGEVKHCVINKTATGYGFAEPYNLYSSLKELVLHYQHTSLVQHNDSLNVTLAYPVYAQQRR

IC50 [1] [nM] | IC50 [2] [nM] | IC50 [3] [nM] | Structure (SMILES)
> 10000 | < 500 | – | Cc1cc([C@@H](C)Nc2cncnc2C(=O)O)c2oc(-c3ccccc3)c(C)c(=O)c2c1 [Example 74, 5-[[(1R)-1-(3,6-Dimethyl-4-oxo-2-phenyl-chromen-8-yl)ethyl]amino]pyrimidine-4-carboxylic acid]
1000 to 5000 | < 500 | – | Cc1cc([C@@H](C)Nc2ccc(Br)cc2C(=O)O)c2oc(-c3ccccc3)c(C)c(=O)c2c1 [Example 77, 5-Bromo-2-[[(1R)-1-(3,6-dimethyl-4-oxo-2-phenyl-chromen-8-yl)ethyl]amino]benzoic acid]
500 to 1000 | < 500 | – | Cc1cc([C@@H](C)Nc2ccccc2C(=O)O)c2oc(-c3ccccc3)c(I)c(=O)c2c1 [Example 79, 2-[[(1R)-1-(3-Iodo-6-methyl-4-oxo-2-phenyl-chromen-8-yl)ethyl]amino]benzoic acid 2,2,2-trifluoroacetic acid]
5000 to 10000 | < 500 | – | C[C@@H](Nc1ccccc1C(=O)O)c1cc(F)cc2c(=O)cc(-c3cccc(C(F)F)c3)oc12 [Example 80, 2-[[(1R)-1-[2-[3-(Difluoromethyl)phenyl]-6-fluoro-4-oxo-chromen-8-yl]ethyl]amino]benzoic acid 2,2,2-trifluoroacetic acid]
1000 to 5000 | < 500 | – | C[C@@H](Nc1ccc(Cl)nc1C(=O)O)c1cc(C(F)(F)F)cc2c(=O)cc(-c3ccccc3)oc12 [Example 82, 6-Chloro-3-[[(1R)-1-[4-oxo-2-phenyl-6-(trifluoromethyl)-chromen-8-yl]ethyl]amino]pyridine-2-carboxylic acid]
5000 to 10000 | < 500 | – | Cc1c(-c2cccc(C(F)F)c2)oc2c([C@@H](C)Nc3ccccc3C(=O)O)cc(F)cc2c1=O [Example 83, 2-[[(1R)-1-[2-[3-(Difluoromethyl)phenyl]-6-fluoro-3-methyl-4-oxo-chromen-8-yl]ethyl]amino]benzoic acid 2,2,2-trifluoroacetic acid]
1000 to 5000 | < 500 | – | COc1ccc(NC(C)c2cc(C)cc3c(=O)c(C)c(-c4ccccc4)oc23)c(C(=O)O)n1 (stereo not shown) [Example 89, 3-[1-(3,6-Dimethyl-4-oxo-2-phenyl-chromen-8-yl)ethylamino]-6-methoxy-pyridine-2-carboxylic acid 2,2,2-trifluoroacetic acid]
5000 to 10000 | < 500 | – | C[C@@H](Nc1ccccc1C(=O)O)c1cc(C(F)(F)F)cc2c(=O)cc(-c3ccc(F)cc3F)oc12 [Example 90, 2-[[(1R)-1-[2-(2,4-Difluorophenyl)-4-oxo-6-(trifluoromethyl)-chromen-8-yl]ethyl]amino]benzoic acid]
1000 to 5000 | < 500 | – | Cc1cc(C(C)Nc2cccc(F)c2C(=O)O)c2oc(-c3ccccc3F)cc(=O)c2c1 (stereo not shown) [Example 97, 2-Fluoro-6-[1-[2-(2-fluorophenyl)-6-methyl-4-oxo-chromen-8-yl]ethylamino]benzoic acid 2,2,2-trifluoroacetic acid]
500 to 1000 | < 500 | – | Cc1c(-c2cccc(C#N)c2)oc2c([C@@H](C)Nc3ccc(Cl)nc3C(=O)O)cc(C(F)(F)F)cc2c1=O [Example 100, 6-Chloro-3-[[(1R)-1-[2-(3-cyanophenyl)-3-methyl-4-oxo-6-(trifluoromethyl)-chromen-8-yl]ethyl]amino]pyridine-2-carboxylic acid]
– | – | < 50 | Cc1cc([C@@H](C)Nc2ccc(C)nc2C(=O)O)c2oc(-c3ccccc3)c(C(F)(F)F)c(=O)c2c1 [Example 116, 6-Methyl-3-[[(1R)-1-[6-methyl-4-oxo-2-phenyl-3-(trifluoromethyl)-chromen-8-yl]ethyl]amino]pyridine-2-carboxylic acid]
< 500 | < 500 | – | Cc1cc([C@@H](C)Nc2ccc(Cl)nc2C(=O)O)c2oc(-c3ccccc3)c(C(F)(F)F)c(=O)c2c1 [Example 139, 6-Chloro-3-[[(1R)-1-[6-methyl-4-oxo-2-phenyl-3-(trifluoromethyl)-chromen-8-yl]ethyl]amino]pyridine-2-carboxylic acid 2,2,2-trifluoroacetic acid]
– | – | < 50 | Cc1cc([C@@H](C)Nc2cccc(F)c2C(=O)O)c2oc(-c3cccc(F)c3)c(C)c(=O)c2c1 [Example 143, 2-Fluoro-6-[[(1R)-1-[2-(3-fluorophenyl)-3,6-dimethyl-4-oxo-chromen-8-yl]ethyl]amino]benzoic acid 2,2,2-trifluoroacetic acid]
– | – | < 50 | Cc1cc([C@@H](C)Nc2ccccc2C(=O)O)c2oc(-c3cccc(C#N)c3F)c(C)c(=O)c2c1 [Example 170, 2-[[(1R)-1-[2-(3-Cyano-2-fluoro-phenyl)-3,6-dimethyl-4-oxo-chromen-8-yl]ethyl]amino]benzoic acid]
